# Reference: patent publication US10654838B2, “Aminopyridine compounds useful as inhibitors of protein prenylation” (INSTITUT NATIONAL DE LA SANTE ET DE LA RECHERCHE MEDICALE …, priority 2014, dated 2020)
# Experiments:
# [1] = test system: prelamin A farnesylation (nuclear localization of prelamin A) in HGPS MSCs; experiment: Prelamin A localization cell-based assay; set-up: species or system human; settings: for EC50: Homo sapiens, 48 h treatment, dose-response
# Description: 2000 HGPS MSCs were plated in black 384-well clear-bottom plates (Corning). After 48 h of drug treatment, cells were fixed in 4% paraformaldehyde (15 minutes, room temperature). Permeabilization, blocking and primary hybridization steps were done concomitantly in a PBS solution supplemented with 0.1% triton X-100 and 1% BSA (Sigma-Aldrich, St. Louis, USA) and rabbit anti-prelamin A (ANTOO45, Diatheva) overnight at 4° C. Cells were stained with the species-specific fluorophore-conjugated secondary anti-rabbit antibody (Invitrogen) (one hour, room temperature) and nuclei were visualized with Hoechst 33342. These steps were automated using a washing/staining station (ELx405 Biotek, RapidStak Thermo, Multidrop Labsystems). Prelamin A localization was analyzed with an ayScan VTI HCS Reader (Cellomics). The first channel was used for nucleus identification (Hoechst 33342 staining) and the second one to identify prelamin A staining. Pictures were acquired with a 5× objective in high-resolution camera mode and were analyzed using the Spot Detector bioapplication. The robustness of the assay was evaluated using the Z′ factor calculated as ollows Z′=1−[3(SDP+SDN)/(MP−MN)] where MP and MN correspond to the means of the positive (tipifarnib 1 μM) and negative (DMSO 0.1%) controls, respectively, and SDP and SDN correspond to their standard deviation.
# The primary screen was conducted on Biocell 1800 (Agilent). […]
# Data analysis of the screening was performed using a customized Hiscreen application (Discngine, Paris, France) connected to Spotfire software (Tibco Co). Screening robustness was evaluated by calculating for each plate the Z'factor on the percentage of prelaminA nuclei parameter. […]
# This study was performed on MSCs derived from HGPS iPS cells, differentiated as previously described (Blondel et al., 2014, Stem Cells Transl Med, VOL. 3: 510-519) and used after ten passages of amplification. […] A high throughput immunostaining assay was developed to robustly quantify prelamin A expression and localization in 384-well plates. […]
# [2] = test system: HDJ2; experiment: Western blot analysis of HDJ2 farnesylation; type: cell-based, human
# [3] = target: T1, FT (Homo sapiens, UniProt P49354+P49356); experiment: FT activity assay (Farnesyltransferase [3H] SPA); type: biochemical; settings: concentration inducing 50% of the maximum inhibiting effect of the compound
# T1 construct: Reactions were started by adding 40 μL of treated or untreated cell lysate; endogenous in cells; host or cells: HGPS MSCs (cell lysate)
# Description: (§1) Cell pellet of HGPS MSCs were resuspended in 25 mM Tris-HCl pH 7.4, 1 mM DTT, 1 mM MgCl2, 1 EDTA, 1 mM PMSF and centrifuged at 10,000×g for 10 min at 4° C. Protein content was determined using Lowry's method. Aliquots of cell lysate containing 100 μg of total proteins were incubated with tested substances at 37° C. for 30 min.
# FT activity was determined by Famesyltransferase [3H] SPA enzyme assay (Amersham Life Science, Buckinghamshire, England). Briefly, FT activity was assayed in 20 μl of assay buffer containing 50 mmol/L Hepes, 30 mmol/L MgCl2, 20 mmol/L KCl and 5 mmol/L dithiothreitol, 20 μl of [3H]-FPP (12 pmol) and 20 μl of biotin lamin B. Reactions were started by adding 40 μL of treated or untreated cell lysate and incubated for 1 hour at 37° C. Reactions were stopped by the addition of 150 μL of stop reagent containing SPA bead and counted in a scintillation counter. FT activity was expressed as pmoles of incorporated [3H]-FPP into biotin lamin-B peptide per minute per milligram of total proteins (pmol/min/mg prot). Parallel samples were assayed to evaluate the total and the nonspecific radioactivity. In all experiments enzyme assays were carried out in triplicate.
# [4] = target: T2, FPPS (Homo sapiens, UniProt P14324); experiment: FPPS activity assay; type: biochemical; set-up: endogenous in cells; host or cells: HGPS MSCs (cell lysate); settings: concentration inducing 50% of the maximum inhibiting effect of the compound
# T2 sequence (P14324 1-419): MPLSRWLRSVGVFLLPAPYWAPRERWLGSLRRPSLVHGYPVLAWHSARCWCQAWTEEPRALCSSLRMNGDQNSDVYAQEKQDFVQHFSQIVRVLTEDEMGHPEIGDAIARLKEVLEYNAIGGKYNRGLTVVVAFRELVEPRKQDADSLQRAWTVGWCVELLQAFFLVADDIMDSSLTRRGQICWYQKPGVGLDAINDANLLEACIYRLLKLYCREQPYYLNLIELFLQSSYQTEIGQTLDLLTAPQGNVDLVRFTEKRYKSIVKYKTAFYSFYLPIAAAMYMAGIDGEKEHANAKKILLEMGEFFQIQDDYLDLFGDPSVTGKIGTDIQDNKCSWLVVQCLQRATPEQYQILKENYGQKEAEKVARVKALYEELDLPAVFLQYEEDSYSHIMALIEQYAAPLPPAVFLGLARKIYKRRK
# Description: as §1
# FPPS assay was carried out with some modifications of the procedure of Krisans et al. (Krisans et al., 1994, The Journal of biological chemistry VOL. 269: 14165-14169) and described by Gupta et al. (Gupta et al., 1999, Eur J Med Chem, VOL. 43: 2751-2767). Briefly, FPPS was assayed in 150 μL containing 25 mmol/L Hepes, pH=7, 2 mmol/L MgCl2, 1 mmol/L dithiothreitol, 5 mmol/L KF, 1% A noctyl-β-glucopyranoside, 3.3 μmol/L [4-14C] IPP (18 Ci/mmol), 3 μmol/L unlabeled IPP and 20 μmol/L geranyl diphosphate. Reactions were started by adding 40 μL of treated or untreated cell lysate and incubated for 45 min at 37° C. Reactions were stopped by the addition of 150 μL 2.5 mol/L HCl in 80% ethanol containing 100 μg/mL farnesol as a carrier. The samples were hydrolyzed for 30 min at 37° C. to convert the FPP to farnesol and neutralized by the addition of 150 μL of 10% NaOH. The reaction product (farnesol) was extracted into 1 mL of N-hexane and an aliquot (200 μL) of the organic phase was used for radioactivity counting. Parallel samples were assayed to evaluate the total and the nonspecific radioactivity. In all experiments, enzyme assays were carried out in triplicate.
# [5] = test system: HGPS MSCs; experiment: Live cell imaging (cell density); type: cell-based, human; settings: 7 days
# Description: HGPS MSCs were seeded at 2500 cells per well in 96-well plates and cultivated during 7 days in presence of the drugs. Cell density was monitored using an IncuCyte ZOOM microscope (Essen Bioscience). Each value corresponds to the mean of cell densities of four pictures taken in three independent wells.
# [6] = target: T3, HMGCR (Homo sapiens, UniProt P04035); experiment: HMGCR colorimetric activity assay; type: biochemical
# T3 construct: oxidation of NADPH by the catalytic subunit of HMGCR in the presence of the substrate HMG CoA; purchased Sigma-Aldrich
# T3 sequence (P04035 340-888 limits assumed): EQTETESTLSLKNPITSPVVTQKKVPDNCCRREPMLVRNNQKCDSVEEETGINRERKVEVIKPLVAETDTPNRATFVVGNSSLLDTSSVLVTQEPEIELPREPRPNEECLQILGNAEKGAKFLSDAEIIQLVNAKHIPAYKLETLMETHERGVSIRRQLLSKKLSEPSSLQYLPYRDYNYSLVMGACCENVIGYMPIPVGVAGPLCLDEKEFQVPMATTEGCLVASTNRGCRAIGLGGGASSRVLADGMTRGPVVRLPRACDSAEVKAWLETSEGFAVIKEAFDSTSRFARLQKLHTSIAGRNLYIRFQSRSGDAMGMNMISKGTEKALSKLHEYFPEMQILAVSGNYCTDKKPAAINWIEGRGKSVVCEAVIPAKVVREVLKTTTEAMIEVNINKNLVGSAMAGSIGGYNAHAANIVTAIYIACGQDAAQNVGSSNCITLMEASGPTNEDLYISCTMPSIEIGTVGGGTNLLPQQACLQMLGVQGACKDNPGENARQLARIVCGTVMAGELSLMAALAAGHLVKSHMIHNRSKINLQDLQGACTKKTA
# Description: HMGCR activity was measured using GCoA Reductase Assay Kit (Sigma-Aldrich) according to the manufacturer's protocol. The assay is based on the spectrophotometric measurement of the decrease in absorbance at 340 nm, which represents the oxidation of NADPH by the catalytic subunit of HMGCR in the presence of the substrate HMG CoA.
# [7] = test system: HGPS MSCs; experiment: Nuclear shape abnormalities (lamin A/C immunostaining); type: cell-based, human; settings: 48 h, lamin A/C staining
# Description: In the 4-steps protocol, cells were fixed in 4% paraformaldehyde (15 minutes, room temperature) before permeabilization and blocking in PBS supplemented with 0.1% triton X-100 and 1% BSA (Sigma-Aldrich, St. Louis, USA). Primary antibodies were incubated one hour at room temperature in blocking buffer. Antibodies included mouse anti-lamins A/C (clone JOL2, Millipore, Billerica, USA), rabbit anti-prelamin A (ANTOO45, Diatheva) and anti-Ki67 (clone Ki-S5, MAB4190, Millipore, Billerica, USA). Cells were stained with the species-specific fluorophore-conjugated secondary antibody (Invitrogen) (one hour, room temperature) and nuclei were visualized with Hoechst 33342.
# [8] = test system: prelamin A; experiment: Western immunoblotting of prelamin A; type: cell-based, human; settings: HGPS MSCs, optimal concentration
# Description: Whole-cell lysates of MSC were collected, separated by SDS-PAGE, and transferred onto PVPF membrane by liquid transfer method. Blots were blocked in 10% skim milk (Bio-Rad) in tween 0.1% tris-buffered saline (TTBS) 1× one hour at room temperature. The primary antibodies used were a mouse anti-lamins A/C 1:200 (Millipore, JOL2), a rabbit anti-prelamin A 1/100 (ANTOO45, Diatheva) and a β-actin 1/200000 (Sigma). Membranes were incubated during the night at 4° C. Antigen-antibody binding was detected using horseradish peroxidaseconjugated species-specific secondary antibodies (GE-Healthcare, Little Chalfont, UK) followed by enhanced chemiluminescence Western blotting detection reagents (Perkin-Elmer, Waltham, USA).
EC50 [1] [nM],Compound,unfarnesylated form of HDJ2 [2],rescue of nuclear shape abnormalities [7],further results
2000,"N#CC(c1ccccn1)c1ccnc(N2CCN(Cc3cccc(F)c3)CC2)n1 (stereo not drawn) [Mono-AP28, {2-[4-(3-Fluoro-benzyl)-piperazin-1-yl]-pyrimidin-4-yl}-pyridin-2-yl-acetonitrile]",,,
,"N#CC(c1ccccn1)c1ccnc(N2CCC(O)(Cc3ccccc3)CC2)n1 (stereo not drawn) [Mono-AP3, [2-(4-Benzyl-4-hydroxy-piperidin-1-yl)-pyrimidin-4-yl]-pyridin-2-yl-acetonitrile]",increase of the unfarnesylated form of the protein,restoring HGPS MSCs nuclear shape defects at levels not significantly different from the FTI tipifarnib,IC50 [3]: 0.35 µM; IC50 [4]: 5.54 µM; cytostatic effect in long term live imaging cultures [5]: less cytostatic than the FTI tipifarnib; IC50 (μM) HMGCR [6]: No inhibition
1500,"Cc1cccc(CN2CCN(c3nccc(C(C#N)c4ccccn4)n3)CC2)c1 (stereo not drawn) [Mono-AP21, {2-[4-(3-Methyl-benzyl)-piperazin-1-yl]-pyrimidin-4-yl}-pyridin-2-yl-acetonitrile]",,,
,"CCCc1c(C(=O)N2CCN(c3cc(N(C)c4cccc(C)c4)ncn3)CC2)cnn1-c1ccccc1 [Di-AP2, {4-[6-(Methyl-m-tolyl-amino)-pyrimidin-4-yl]-piperazin-1-yl}-(1-phenyl-5-propyl-1H-pyrazol-4-yl)-methanone]",increase of the unfarnesylated form of the protein,restored significantly,prelamin A level (Western blot) [8]: increased
,"CCOC(=O)CN1CCN(c2nccc(C(C#N)c3ccccn3)n2)CC1 (stereo not drawn) [Mono-AP25, {4-[4-(Cyano-pyridin-2-yl-methyl)-pyrimidin-2-yl]-piperazin-1-yl}-acetic acid ethyl ester]",,,efficiency on prelamin A farnesylation (in words) ([1]; dose response): decrease in efficiency
